Where two headings read alike, the source gives them in different places.
Biological target: T1, YtfB (his6-YtfB, C-terminal domain) (Escherichia coli, UniProt P39310)
T1 construct: extracellular C-terminal region, residues 52-212 incl; LysM-like (OapA) domain; His6 tag kept; pETMCSIII-ytfB, expressed in E. coli BL21 AI
Assay: surface plasmon resonance, steady state affinity, YtfB immobilised by amine coupling on CM5
Assay type: binding
Conditions: PBS running buffer

T1 sequence (P39310 52-212): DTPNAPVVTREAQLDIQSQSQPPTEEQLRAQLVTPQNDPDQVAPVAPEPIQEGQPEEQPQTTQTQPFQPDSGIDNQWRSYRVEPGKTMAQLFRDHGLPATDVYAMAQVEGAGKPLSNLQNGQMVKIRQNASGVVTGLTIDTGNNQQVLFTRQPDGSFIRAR

Compound	Kd [nM]	Kd (read-out: KD) [nM]
CC(=O)N[C@H]1[C@H](O[C@H]2[C@H](O)[C@@H](NC(C)=O)C(O)O[C@@H]2CO)O[C@H](CO)[C@@H](O[C@@H]2O[C@H](CO)[C@@H](O)[C@H](O)[C@H]2NC(C)=O)[C@@H]1O (stereo partly shown) [4B, GlcNAcβ1-4GlcNAcβ1-4GlcNAc]	3300 ± 2130	
CC(=O)N[C@H]1[C@H](O[C@H]2[C@H](O)[C@@H](NC(C)=O)[C@H](O[C@H]3[C@H](O)[C@@H](NC(C)=O)C(O)O[C@@H]3CO)O[C@@H]2CO)O[C@H](CO)[C@@H](O[C@@H]2O[C@H](CO)[C@@H](O[C@@H]3O[C@H](CO)[C@@H](O[C@@H]4O[C@H](CO)[C@@H](O)[C@H](O)[C@H]4NC(C)=O)[C@H](O)[C@H]3NC(C)=O)[C@H](O)[C@H]2NC(C)=O)[C@@H]1O (stereo partly shown) [4D, hexaacetylchitohexaose]	24.8 ± 5.3	
OC[C@H]1O[C@H](O[C@@H]2C(O)O[C@H](CO)[C@@H](O)[C@@H]2O)[C@@H](O)[C@@H](O)[C@@H]1O (stereo partly drawn) [5C, α1–2mannobiose]	43.3	
OC[C@H]1O[C@H](O[C@H]2[C@H](O)[C@@H](CO)OC(O)[C@H]2O)[C@@H](O)[C@@H](O)[C@@H]1O (stereo partly drawn) [5D, α1–3mannobiose]	345	
OC[C@H]1O[C@H](O[C@H]2[C@H](O)[C@H](O)C(O)O[C@@H]2CO)[C@@H](O)[C@@H](O)[C@@H]1O (stereo partly drawn) [5E, α1–4mannobiose]	31.2	
OC[C@H]1O[C@H](OC[C@H]2OC(O)[C@@H](O)[C@@H](O)[C@@H]2O)[C@@H](O)[C@@H](O)[C@@H]1O (stereo partly drawn) [5F, α1–6 mannobiose]		112
CC(=O)N[C@H]1[C@H](O[C@H]2[C@H](O)[C@@H](NC(C)=O)C(O)O[C@@H]2CO)O[C@H](CO)[C@@H](O[C@@H]2O[C@H](CO)[C@@H](O[C@@H]3O[C@H](CO)[C@@H](O)[C@H](O)[C@H]3NC(C)=O)[C@H](O)[C@H]2NC(C)=O)[C@@H]1O (stereo partly shown) [tetraose (N’acetylglucosamine)]	463 ± 71	

Source: PMC7174318, “The novel E. coli cell division protein, YtfB, plays a role in eukaryotic cell adhesion” (Scientific Reports, 2020)
